Experimental data from PubChem BioAssay AID330 (DTP/NCI, 2004).
Where “and” joins values, the source holds several entries; their conditions need not be identical. Identical values can stand only once. Inconclusive results and toxic doses are left out. How the source made its calls: active means survival T/C of 150% or more; inactive means T/C below 125% in these data.

System: P388 leukemia ip, CD2F1 mice, survival T/C
Test: NCI In Vivo Anticancer Drug Screen. Data for tumor model P388 Leukemia (intraperitoneal) in CD2F1 (CDF1) mice
Details: endpoint: median survival time, higher = longer survival
In short: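 Mice carrying the transplanted tumor received test compound or vehicle. Survival was recorded in each group, and the value is the treated-group measurement divided by that of the vehicle-treated control group.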

[1] = dose: 25.0 mg/kg/injection, schedule: Q01DX009 (ip), vehicle: saline
[2] = dose: 50.0 mg/kg/injection, schedule: Q01DX009 (ip), vehicle: saline
[3] = dose: 100.0 mg/kg/injection, schedule: Q01DX009 (ip), vehicle: saline

Measured: T/C

Cc1c(O)c2c(c(O)c1Cc1ccc(CN)cc1)C(=O)c1ccccc1C2=O
inactive: dose: 12.5 mg/kg/injection, schedule: Q04DX003 (ip), vehicle: water 98 % of control | dose: 25.0 mg/kg/injection, schedule: Q04DX003 (ip), vehicle: water 90 % of control | dose: 50.0 mg/kg/injection, schedule: Q04DX003 (ip), vehicle: water 93 % of control | dose: 100.0 mg/kg/injection, schedule: Q04DX003 (ip), vehicle: water 103 % of control

O=C1NC(=O)C2(F)CC3(CCCCC3)C2N1 (stereo unspecified)
inactive: dose: 1.5 mg/kg/injection, schedule: Q01DX005 (ip), vehicle: Klucel (hydroxypropylcellulose) (HPC) 100 % of control | dose: 3.0 mg/kg/injection, schedule: Q01DX005 (ip), vehicle: Klucel (hydroxypropylcellulose) (HPC) 102 % of control | dose: 6.0 mg/kg/injection, schedule: Q01DX005 (ip), vehicle: Klucel (hydroxypropylcellulose) (HPC) 94 % of control | dose: 12.5 mg/kg/injection, schedule: Q01DX001 (ip), vehicle: Klucel (hydroxypropylcellulose) (HPC) 103 % of control

CC(C)S(=O)(=O)n1c(N)nc2ccc(/C(=N/O)c3ccccc3)cc21
inactive: dose: 50.0 mg/kg/injection, schedule: Q01DX005 (ip), vehicle: Klucel (hydroxypropylcellulose) (HPC) 100 % of control | dose: 100.0 mg/kg/injection, schedule: Q01DX005 (ip), vehicle: Klucel (hydroxypropylcellulose) (HPC) 101 % of control | dose: 200.0 mg/kg/injection, schedule: Q01DX005 (ip), vehicle: Klucel (hydroxypropylcellulose) (HPC) 95 % of control

CCCCC(N)P(=O)(O)O (stereo unspecified)
inactive: dose: 12.5 mg/kg/injection, schedule: Q01DX009 (ip), vehicle: saline 87 % of control | [1] 92 % of control | [2] 86 % of control | [3] 97 % of control

O=C1CSC(c2cccc(Cl)c2Cl)N1c1nncs1 (stereo unspecified)
inactive: dose: 100.0 mg/kg/injection, schedule: Q04DX002 (ip), vehicle: saline with Tween-80 112 % of control | dose: 200.0 mg/kg/injection, schedule: Q04DX002 (ip), vehicle: saline with Tween-80 94 % of control | dose: 400.0 mg/kg/injection, schedule: Q04DX002 (ip), vehicle: saline with Tween-80 97 % of control

CCC[CH2][GeH][CH2]CCC.CCC[CH2][Ge]([CH2]CCC)[CH2]CCC
inactive: [2] 98 % of control | [3] 88 % of control | dose: 200.0 mg/kg/injection, schedule: Q01DX009 (ip), vehicle: saline 98 % of control

CCOC(=O)CC(C)=N
inactive: dose: 25.0 mg/kg/injection, schedule: Q01DX009 (ip), vehicle: saline with Tween-80 112 % of control | dose: 50.0 mg/kg/injection, schedule: Q01DX009 (ip), vehicle: saline with Tween-80 99 % of control and 110 % of control and 114 % of control | dose: 100.0 mg/kg/injection, schedule: Q01DX009 (ip), vehicle: saline with Tween-80 106 % of control and 107 % of control and 113 % of control | dose: 200.0 mg/kg/injection, schedule: Q01DX009 (ip), vehicle: saline with Tween-80 103 % of control and 109 % of control and 123 % of control | dose: 400.0 mg/kg/injection, schedule: Q01DX009 (ip), vehicle: saline with Tween-80 103 % of control and 105 % of control

Oc1ccc2c(c1)[C@]13CCCCC1[C@H](C2)N(Cc1ccoc1)CC3 (stereo partly specified)
inactive: [1] 97 % of control | [2] 99 % of control and 103 % of control | [3] 99 % of control

O=C(Nc1ccccc1[N+](=O)[O-])C1C(=O)C(=O)N(c2ccccc2[N+](=O)[O-])C1=O (stereo unspecified)
inactive: dose: 50.0 mg/kg/injection, schedule: Q01DX009 (ip), vehicle: Klucel (hydroxypropylcellulose) (HPC) 99 % of control | dose: 100.0 mg/kg/injection, schedule: Q01DX009 (ip), vehicle: Klucel (hydroxypropylcellulose) (HPC) 108 % of control | dose: 200.0 mg/kg/injection, schedule: Q01DX009 (ip), vehicle: Klucel (hydroxypropylcellulose) (HPC) 99 % of control

COC(C)(C)c1cc(C(C)(C)C)cc2c1SOC2(C)C
inactive: dose: 100.0 mg/kg/injection, schedule: Q04DX002 (ip), vehicle: Klucel (hydroxypropylcellulose) (HPC) 94 % of control | dose: 200.0 mg/kg/injection, schedule: Q04DX002 (ip), vehicle: Klucel (hydroxypropylcellulose) (HPC) 100 % of control | dose: 400.0 mg/kg/injection, schedule: Q04DX002 (ip), vehicle: Klucel (hydroxypropylcellulose) (HPC) 114 % of control

CN(C)CC1=Nc2cccc3cccc(c23)N1
inactive: dose: 60.0 mg/kg/injection, schedule: Q01DX005 (ip), vehicle: saline with Tween-80 102 % of control | dose: 120.0 mg/kg/injection, schedule: Q01DX005 (ip), vehicle: saline with Tween-80 106 % of control

[Cl][Pt+2][Cl].[NH-]CC([NH-])CN
inactive: dose: 6.25 mg/kg/injection, schedule: Q04DX003 (ip), vehicle: saline 101 % of control | dose: 12.5 mg/kg/injection, schedule: Q04DX003 (ip), vehicle: saline 111 % of control | dose: 25.0 mg/kg/injection, schedule: Q04DX003 (ip), vehicle: saline 107 % of control

C[n+]1c(-c2cccc(-c3ccccc3)c2)c2cc(N)ccc2c2ccccc21
inactive: dose: 1.56 mg/kg/injection, schedule: Q01DX009 (ip), vehicle: other 124 % of control
